# Experimental data from article PMC11945486, “TAS1R2/TAS1R3 Single-Nucleotide Polymorphisms Affect Sweet Taste Receptor Activation by Sweeteners: The SWEET Project” (Nutrients, 2025).
# No end group written: not given here.
# T1: human TAS1R2-R317G/TAS1R3-WT (Homo sapiens, UniProt Q7RTX0+Q8TE23, R317G)
# T1 construct: expressed in transfected cells; host or cells: HEK293T-Gα16gust44
# T1 sequence (Q8TE23 20-839 R317G): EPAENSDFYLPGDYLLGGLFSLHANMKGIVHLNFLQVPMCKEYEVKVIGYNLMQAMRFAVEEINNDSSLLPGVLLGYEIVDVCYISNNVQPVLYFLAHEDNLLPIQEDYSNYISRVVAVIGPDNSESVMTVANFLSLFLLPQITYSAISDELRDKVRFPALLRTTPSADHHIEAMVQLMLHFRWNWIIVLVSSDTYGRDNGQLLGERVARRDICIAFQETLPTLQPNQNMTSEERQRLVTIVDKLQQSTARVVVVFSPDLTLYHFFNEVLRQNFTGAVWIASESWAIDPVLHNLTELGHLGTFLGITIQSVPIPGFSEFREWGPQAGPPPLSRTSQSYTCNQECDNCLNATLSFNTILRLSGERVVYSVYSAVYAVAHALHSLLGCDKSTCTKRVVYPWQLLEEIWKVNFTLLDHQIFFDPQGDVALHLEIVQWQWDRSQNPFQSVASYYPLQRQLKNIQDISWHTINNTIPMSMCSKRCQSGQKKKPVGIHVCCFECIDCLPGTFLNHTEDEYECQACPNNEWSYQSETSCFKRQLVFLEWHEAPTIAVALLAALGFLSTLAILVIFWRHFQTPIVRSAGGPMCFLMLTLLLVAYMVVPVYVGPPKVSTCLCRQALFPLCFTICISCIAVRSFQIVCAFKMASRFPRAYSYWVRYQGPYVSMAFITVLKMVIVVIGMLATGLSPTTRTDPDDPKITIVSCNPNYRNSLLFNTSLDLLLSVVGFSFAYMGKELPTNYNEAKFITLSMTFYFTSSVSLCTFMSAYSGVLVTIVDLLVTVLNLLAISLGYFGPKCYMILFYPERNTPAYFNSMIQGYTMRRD
# T1 sequence (Q7RTX0 21-852): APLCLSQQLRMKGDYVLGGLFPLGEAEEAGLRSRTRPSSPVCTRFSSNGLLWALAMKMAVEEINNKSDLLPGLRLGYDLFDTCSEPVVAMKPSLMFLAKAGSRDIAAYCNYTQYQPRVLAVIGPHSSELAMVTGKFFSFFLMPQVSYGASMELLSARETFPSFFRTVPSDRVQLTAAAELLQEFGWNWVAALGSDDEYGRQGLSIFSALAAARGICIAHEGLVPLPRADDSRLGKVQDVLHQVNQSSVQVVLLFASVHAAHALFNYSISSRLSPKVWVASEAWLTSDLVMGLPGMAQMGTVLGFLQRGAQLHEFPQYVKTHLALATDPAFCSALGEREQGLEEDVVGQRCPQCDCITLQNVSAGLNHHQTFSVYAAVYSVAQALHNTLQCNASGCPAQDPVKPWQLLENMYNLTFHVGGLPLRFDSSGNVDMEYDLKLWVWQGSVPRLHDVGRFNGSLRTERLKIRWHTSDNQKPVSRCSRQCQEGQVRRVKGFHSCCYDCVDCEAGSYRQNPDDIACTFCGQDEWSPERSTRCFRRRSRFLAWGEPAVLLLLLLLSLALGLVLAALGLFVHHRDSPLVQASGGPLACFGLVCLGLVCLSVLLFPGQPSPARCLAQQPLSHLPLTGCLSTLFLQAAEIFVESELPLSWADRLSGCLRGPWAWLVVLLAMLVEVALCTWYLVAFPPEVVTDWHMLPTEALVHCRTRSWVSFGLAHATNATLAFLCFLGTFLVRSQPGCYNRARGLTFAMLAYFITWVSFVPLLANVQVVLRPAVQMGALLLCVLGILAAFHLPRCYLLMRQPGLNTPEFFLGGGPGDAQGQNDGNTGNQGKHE
# Target: T1, human TAS1R2-R317G/TAS1R3-WT
# Assay: Calcium mobilisation assay, TAS1R2 variant R317G with TAS1R3-WT
# Format: cell-based
# Conditions: for Max ΔF/F0: maximal signal amplitude
# From the text: The coding sequences for TAS1R2 and TAS1R3 were commercially synthesised, and the human codon was optimised for expression in human cells. The coding sequences of human TAS1R2 and TAS1R3 were subcloned and inserted into the mammalian expression vectors pcDNA6/myc-HisA and pcDNA4/myc-HisA (Invitrogen; Thermo Fisher Scientific; Illkirch, France) between the EcoRI and NotI restriction sites, generating the plasmids pcDNA6-TAS1R2 and pcDNA4-TAS1R3, respectively. To increase protein expression in mammalian cells, an upstream start codon was used, which was a sequence called MAX, corresponding to the QBI SP163 element also described in pcDNA4-HisMax (Invitrogen; Thermo Fisher Scientific; Illkirch, France). To measure the expression level of the receptor by immunohistochemistry, we used the FLAG sequence ([…]) in the C-terminal position, which encodes the FLAG tag epitope. SNP variants of TAS1R2 and TAS1R3 were constructed based on […], respectively, using site-directed mutagenesis (Genewiz; Leipzig, Germany).
# The HEK293T cells were kindly provided by Jay P. Slack (Givaudan Flavors Corporation; Cincinnati, OH, USA). HEK293T cells stably transfected with Gα16gust44 [43, 67] were seeded in poly-D-lysine-coated clear-bottom black 96-well plates (0.35 × 10^5 cells/well) in high-glucose DMEM supplemented with 2 mM GlutaMAX, 10% dialysed foetal bovine serum with penicillin/streptomycin and G418 (400 μg/mL) at 37 °C and 6.3% CO2 in a humidified atmosphere as previously reported. […] As a negative control, HEK293T cells were mock-transfected with the empty expression vector. After a further 24 h of incubation, the HEK293T cells were washed with C1 buffer (130 mM NaCl, 5 mM KCl, 10 mM HEPES pH 7.4 and 2 mM CaCl2). The 96-well plates containing the cells were then stimulated with sweet-tasting compounds. […] Different concentration ranges were tested depending on the sweet compound injected. The Ca^2+ changes were expressed as fractional changes in fluorescent light intensity: ΔF/F = (F − F0)/F0, where F was the fluorescent light intensity at each point, and F0 was the value of emitted fluorescent light prior to stimulus application. To calculate dose–response relationships, the changes in fluorescence upon stimulus application were averaged, mock-subtracted and baseline-corrected. The dose–response data obtained were adjusted using a 4-parameter logistic equation. The half-maximal effective concentrations (EC50 values) and maximal signal amplitudes were calculated using SigmaPlot software (version 15.0) (Systat Software; San Jose, CA, USA).
# For in vitro calcium mobilisation assay performed on hTAS1R2-SNPs, hTAS1R3-SNPs and mTAS1R3-I60T, 6 to 7 concentrations were tested for each sweet compound, plus buffer alone. All concentration–receptor combinations were measured in duplicate, and each experiment was repeated at least 4 times (8 wells/concentration). Results were expressed for each concentration as ΔF/F mean ± SEM and represented as dose–response curves.
Molecule,EC50 [µM],R1 = Variant EC50/WT EC50,Max ΔF/F0
"CC1=CC(=O)NS(=O)(=O)O1 [Acesulfame K, acesulfame K]",465 ± 55,0.7,0.46 ± 0.02
"O=S(=O)(O)NC1CCCCC1 [Cyclamate, cyclamate]",2160 ± 44,,
"C[C@H](CC[C@@H](O[C@@H]1O[C@H](CO[C@@H]2O[C@H](CO)[C@@H](O)[C@H](O)[C@H]2O)[C@@H](O)[C@H](O)[C@H]1O[C@@H]1O[C@H](CO)[C@@H](O)[C@H](O)[C@H]1O)C(C)(C)O)[C@H]1CC[C@@]2(C)[C@@H]3CC=C4[C@@H](CC[C@H](O[C@@H]5O[C@H](CO[C@@H]6O[C@H](CO)[C@@H](O)[C@H](O)[C@H]6O)[C@@H](O)[C@H](O)[C@H]5O)C4(C)C)[C@]3(C)[C@H](O)C[C@]12C [Mogroside V, mogroside V]",18.4 ± 1,1.1,1.34 ± 0.03
"COc1ccc(CCC(=O)c2c(O)cc(O[C@@H]3O[C@H](CO)[C@@H](O)[C@H](O)[C@H]3O[C@@H]3O[C@@H](C)[C@H](O)[C@@H](O)[C@H]3O)cc2O)cc1O [NHDC, neohesperidin dihydrochalcone]",97.1 ± 5,1.3,0.85 ± 0.02
COC(=O)[C@H](Cc1ccccc1)NC(=O)[C@H](CC(=O)O)NCCC(C)(C)C [Neotame],0.73 ± 0.13,0.9,0.56 ± 0.03

# Results, then the molecule that gave them:
EC50 [µM],R1 = Variant EC50/WT EC50,Max ΔF/F0,Molecule
20.7 ± 0.6,1.2,1.53 ± 0.03,"C=C(C)[C@@H]1CC=C(/C=N/O)CC1 [Perillartine, perillartine]"
20.4 ± 0.4,1.2,1.23 ± 0.01,"C=C1C[C@@]23CC[C@H]4[C@@](C)(CCC[C@@]4(C)C(=O)O[C@@H]4O[C@H](CO)[C@@H](O)[C@H](O[C@@H]5O[C@H](CO)[C@@H](O)[C@H](O)[C@H]5O)[C@H]4O[C@@H]4O[C@H](CO)[C@@H](O)[C@H](O)[C@H]4O)[C@@H]2CC[C@]1(O[C@@H]1O[C@H](CO)[C@@H](O)[C@H](O[C@@H]2O[C@H](CO)[C@@H](O)[C@H](O)[C@H]2O)[C@H]1O[C@@H]1O[C@H](CO)[C@@H](O)[C@H](O)[C@H]1O)C3 [Rebaudioside M, rebaudioside M]"
62 ± 11,0.7,0.80 ± 0.05,OC[C@H]1O[C@H](O[C@]2(CCl)O[C@H](CCl)[C@@H](O)[C@@H]2O)[C@H](O)[C@@H](O)[C@H]1Cl [Sucralose]
,1.3,1.18 ± 0.03,"brazzein (QDKCKKVYENYPVSKCQLANQCNYDCKLDKHARSGECFYDEKRNLQCICDYCEY; ends and bridges not checked; cysteine pairing not given here; UniProt P56552 1-54, looked up) [sweet-tasting protein obtained by recombinant production using the yeast Pichia pastoris]"
,1.4,1.16 ± 0.02,thaumatin
10.9 ± 0.3,,,"thaumatin (protein, Eight disulfides, sweet-tasting plant protein, E957) ATFEIVNRCSYTVWAAASKGDAALDAGGRQLNSGESWTINVEPGTKGGKIWARTDCYFDDSGSGICKTGDCGGLLRCKRFGRPPTTLAEFSLNQYGKDYIDISNIKGFNVPMDFSPTTRGCRGVRCAADIVGQCPAKLKAPGGGCNDACTVFQTSEYCCTTGKCGPTEYSRFFKRLCPDAFSYVLDKPTTVTCPGSSNYRVTFCPTA"
